Test results as given in patent US20250108036A1, “COMPOSITIONS FOR REMOVING SENESCENT CELLS AND USES THEREOF” (LIFECEUTIX CO., LTD., priority 2021, published 2025).

Legend:
Assay type in all cases: cell-based, human
senescent foreskin cells = assay: survival of senescent foreskin cells treated with medium supernatant (secreted fluid) of compound-killed cells (Example 13, Tables 68, 69); details: culture medium supernatant from dying senescent cells treated with compound at 30 μM, 90 μM or 270 μM; senescent foreskin cells
Description: (§1) After 3 days, cell viability was measured using CellTiter-Glo Luminescent Cell Viability Assay (Promega) or light microscopy.
During this additional culture, by checking with an optical microscope, etc., the medium supernatants containing secreted fluid from normally proliferating and senescent cells in which cell death was induced were obtained. The obtained medium supernatant was replaced with the medium of normally proliferating and senescent cells, respectively, and cell survival rate was measured after 3 days.

HMGN1 [1] = assay: HMGN1 ELISA in culture medium of A549 cancer cells (Example 12, Table 66); details: doxorubicin-induced senescent A549 cells, ELISA, DMSO = 100
HMGN1 [2] = assay: HMGN1 ELISA in culture medium of foreskin cells (Examples 10, 11; Tables 62, 63, 64); details: doxorubicin-treated foreskin cells, DMSO = 100
A549 = assay: CellTiter-Glo cell viability of senescent A549 cancer cells (Example 12, Table 67); details: doxorubicin-induced senescent A549 cancer cells, CellTiter-Glo
[3] = system: foreskin cells in which senescence was induced by doxorubicin; assay: CellTiter-Glo cell viability of doxorubicin-induced senescent foreskin cells (Examples 1-2, 10, 11, 13; Tables 4, 63, 65); details: doxorubicin-induced senescent foreskin cells, CellTiter-Glo, 0 μM = 100
Description: as §1

Molecule: CC1=C(C)C(=O)C(CCCCCCCCCC[P+](c2ccccc2)(c2ccccc2)c2ccccc2)=CC1=O.[Br-] [LX-1205]
- Survival (senescent foreskin cells): 53.4
- HMGN1 (amount of HMGN1 secreted in the cell culture) (HMGN1 [1]; test compound 30 μM): 279
- HMGN1 (HMGN1 [2]; 30 μM test compound): 279
- Survival (%) (A549; 1.1 μM test compound): 34.2%
- Survival (%) ([3]; 1.1 μM test compound): 0.1%

Molecule: C[N+](C)(C)CCO.C[N+](C)(C)CCO.[SH-].[SH-].[S]=[Mo]=[S] [LX-2601]
- Survival (senescent foreskin cells): 67.3
- HMGN1 (amount of HMGN1 secreted in the cell culture) (HMGN1 [1]; test compound 30 μM): 193
- HMGN1 (HMGN1 [2]; 30 μM test compound): 263
- Survival (%) (A549; 1.1 μM test compound): 98.6%
- Survival (%) (A549; 10 μM test compound): 59.7%
- Survival (%) (A549; 30 μM test compound): 50.7%
- Survival (%) ([3]; 1.1 μM test compound): 95.2%
- Survival (%) ([3]; 10 μM test compound): 58.6%
- Survival (%) ([3]; 30 μM test compound): 21.8%
- Survival (%) ([3]; […] test compound): 81.8%

Molecule: O=C(O)CC([S-])C(=O)O.[Au+] (centres unmarked) [LX-202, Aurothiomalate, reference compound]
- Survival (senescent foreskin cells): 45.7
- HMGN1 (amount of HMGN1 secreted in the cell culture) (HMGN1 [1]; test compound 30 μM): 327
- HMGN1 (HMGN1 [2]; 30 μM test compound): 287
- Survival (%) (A549; 1.1 μM test compound): 96.7%
- Survival (%) (A549; 10 μM test compound): 37.3%
- Survival (%) ([3]; 1.1 μM test compound): 97.4%
- Survival (%) ([3]; […] test compound): 7.6%

Molecule: C[Se](=O)O [LX-3105, Methylseleninic acid]
- Survival (senescent foreskin cells): 69.1
- HMGN1 (amount of HMGN1 secreted in the cell culture) (HMGN1 [1]; test compound 90 μM): 202
- HMGN1 (HMGN1 [2]; 30 μM test compound): 195
- Survival (%) (A549; 1.1 μM test compound): 84%
- Survival (%) (A549; 10 μM test compound): 69.9%
- Survival (%) (A549; 30 μM test compound): 59.3%
- Survival (%) (A549; 90 μM test compound): 39.6%
- Survival (%) ([3]; 1.1 μM test compound): 82.1%
- Survival (%) ([3]; 10 μM test compound): 41.1%
- Survival (%) ([3]; 30 μM test compound): 37.7%
- Survival (%) ([3]; 90 μM test compound): 4.1%
- Survival (%) ([3]; […] test compound): 59.5%

Molecule: Cc1nnc(NC(=O)c2nc(S(=O)(=O)Cc3ccc(F)cc3)ncc2Cl)s1 [LX-916]
- Survival (senescent foreskin cells): 48.7
- HMGN1 (amount of HMGN1 secreted in the cell culture) (HMGN1 [1]; test compound 90 μM): 198
- HMGN1 (HMGN1 [2]; 30 μM test compound): 317
- Survival (%) (A549; 1.1 μM test compound): 103.9%
- Survival (%) (A549; 10 μM test compound): 71.7%
- Survival (%) (A549; 30 μM test compound): 24.4%
- Survival (%) (A549; 90 μM test compound): 1.7%
- Survival (%) ([3]; 1.1 μM test compound): 103.5%
- Survival (%) ([3]; 10 μM test compound): 54.5%
- Survival (%) ([3]; 30 μM test compound): 3.5%
- Survival (%) ([3]; […] test compound): 94.2%

Molecule: O=C(NCCCCCCCCCC[P+](c1ccccc1)(c1ccccc1)c1ccccc1)c1nn(Cc2ccc(Cl)cc2Cl)c2ccccc12.[Br-] [LX-1207]
- Survival (senescent foreskin cells): 62.7
- HMGN1 (amount of HMGN1 secreted in the cell culture) (HMGN1 [1]; test compound 30 μM): 318
- HMGN1 (HMGN1 [2]; 30 μM test compound): 285
- Survival (%) (A549; 1.1 μM test compound): 59.8%
- Survival (%) ([3]; 1.1 μM test compound): 36.8%
- Survival (%) ([3]; […] test compound): 10%

Molecule: CC(N)(Cc1ccc(O)cc1)C(=O)O (racemic) [LX-3206, Racemetyrosine, reference compound]
- Survival (senescent foreskin cells): 51.9
- HMGN1 (amount of HMGN1 secreted in the cell culture) (HMGN1 [1]; test compound 30 μM): 215
- HMGN1 (HMGN1 [2]; 30 μM test compound): 222
- Survival (%) (A549; 1.1 μM test compound): 92.6%
- Survival (%) (A549; 10 μM test compound): 51.9%
- Survival (%) (A549; 30 μM test compound): 5.7%
- Survival (%) ([3]; 1.1 μM test compound): 95.8%
- Survival (%) ([3]; 10 μM test compound): 64.7%
- Survival (%) ([3]; 30 μM test compound): 21.3%
- Survival (%) ([3]; […] test compound): 96%

Molecule: Cc1nc(-c2nc(-c3ccc(OC(F)(F)F)cc3)no2)nn1Cc1cccc(N2CCC(S(C)(=O)=O)CC2)c1 [LX-3200]
- Survival (senescent foreskin cells): 54.9
- HMGN1 (amount of HMGN1 secreted in the cell culture) (HMGN1 [1]; test compound 30 μM): 305
- HMGN1 (HMGN1 [2]; 30 μM test compound): 234
- Survival (%) (A549; 1.1 μM test compound): 94.9%
- Survival (%) (A549; 10 μM test compound): 61.6%
- Survival (%) (A549; 30 μM test compound): 1.6%
- Survival (%) ([3]; 1.1 μM test compound): 92.2%
- Survival (%) ([3]; 10 μM test compound): 14.3%
- Survival (%) ([3]; […] test compound): 78.6%

Molecule: C[C@@H]1C(=O)C(C#N)=C[C@]2(c3ccccc3)c3c(c(-c4cncnc4)nn3C)CC[C@@H]12 [LX-2408]
- Survival (senescent foreskin cells): 55.2
- HMGN1 (amount of HMGN1 secreted in the cell culture) (HMGN1 [1]; test compound 30 μM): 329
- HMGN1 (HMGN1 [2]; 30 μM test compound): 297
- Survival (%) (A549; 1.1 μM test compound): 96.5%
- Survival (%) (A549; 10 μM test compound): 15.9%
- Survival (%) ([3]; 1.1 μM test compound): 85.9%
- Survival (%) ([3]; […] test compound): 37.5%

Molecule: C[Si](C)(Cc1ccc(F)cc1)CN1CCCCC1.Cl [LX-1407, Silperisone, reference compound]
- Survival (senescent foreskin cells): 69.9
- HMGN1 (amount of HMGN1 secreted in the cell culture) (HMGN1 [1]; test compound 30 μM): 175
- HMGN1 (HMGN1 [2]; 30 μM test compound): 232
- Survival (%) (A549; 1.1 μM test compound): 101.5%
- Survival (%) (A549; 10 μM test compound): 71.7%
- Survival (%) (A549; 30 μM test compound): 39.4%
- Survival (%) ([3]; 1.1 μM test compound): 99.4%
- Survival (%) ([3]; 10 μM test compound): 72.8%
- Survival (%) ([3]; 30 μM test compound): 19.9%
- Survival (%) ([3]; […] test compound): 95.9%

Molecule: CCOC(=O)[C@@H](N)CCC(=O)N[C@@H](CSCc1ccccc1)C(=O)N[C@@H](C(=O)OCC)c1ccccc1 [LX-2602, Ezatiostat, reference compound]
- Survival (senescent foreskin cells): 69.5
- HMGN1 (amount of HMGN1 secreted in the cell culture) (HMGN1 [1]; test compound 30 μM): 283
- HMGN1 (HMGN1 [2]; 30 μM test compound): 208
- Survival (%) (A549; 1.1 μM test compound): 102.7%
- Survival (%) (A549; 10 μM test compound): 96%
- Survival (%) (A549; 30 μM test compound): 32.5%
- Survival (%) ([3]; 1.1 μM test compound): 97.3%
- Survival (%) ([3]; 10 μM test compound): 76.9%
- Survival (%) ([3]; 30 μM test compound): 47.6%
- Survival (%) ([3]; […] test compound): 92.5%

Molecule: Tocofersolan [LX-3001, reference compound]
- Survival (senescent foreskin cells): 58.7
- HMGN1 (amount of HMGN1 secreted in the cell culture) (HMGN1 [1]; test compound 30 μM): 261
- HMGN1 (HMGN1 [2]; 30 μM test compound): 301
- Survival (%) (A549; 1.1 μM test compound): 101.6%
- Survival (%) (A549; 10 μM test compound): 22.6%
- Survival (%) ([3]; 1.1 μM test compound): 74.8%
- Survival (%) ([3]; […] test compound): 1.1%

Molecule: CN(Cc1cnc2nc(N)nc(N)c2n1)c1ccc(C(=O)N[C@@H](CCC(=O)O)C(=O)O)cc1 [LX-2901, Methotrexate, reference compound]
- Survival (senescent foreskin cells): 97.5
- HMGN1 (amount of HMGN1 secreted in the cell culture) (HMGN1 [1]; test compound 90 μM): 189
- HMGN1 (HMGN1 [2]; 90 μM test compound): 167
- Survival (%) (A549; 1.1 μM test compound): 89%
- Survival (%) (A549; 10 μM test compound): 90.4%
- Survival (%) (A549; 30 μM test compound): 92.3%
- Survival (%) (A549; 90 μM test compound): 37.2%
- Survival (%) ([3]; 1.1 μM test compound): 103.3%
- Survival (%) ([3]; 10 μM test compound): 104.8%
- Survival (%) ([3]; 30 μM test compound): 93.6%
- Survival (%) ([3]; 90 μM test compound): 49.9%
- Survival (%) ([3]; […] test compound): 97.8%

B1: LX-3103: CAS 9015-68-3 (protein, UniProt P00805 23-348, looked up)
L-asparaginase 2: LPNITILATGGTIAGGGDSATKSNYTVGKVGVENLVNAVPQLKDIANVKGEQVVNIGSQDMNDNVWLTLAKKINTDCDKTDGFVITHGTDTMEETAYFLDLTVKCDKPVVMVGAMRPSTSMSADGPFNLYNAVVTAADKASANRGVLVVMNDTVLDGRDVTKTNTTDVATFKSVNYGPLGYIHNGKIDYQRTPARKHTSDTPFDVSKLNELPKVGIVYNYANASDLPAKALVDAGYDGIVSAGVGNGNLYKSVFDTLATAAKTGTAVVRSSRVPTGATTQDAEVDDAKYGFVASGTLNPQKARVLLQLALTQTKDPQQIQQIFNQY
- Survival (senescent foreskin cells): 64.3
- HMGN1 (amount of HMGN1 secreted in the cell culture) (HMGN1 [1]; test compound 30 μM): 254
- HMGN1 (HMGN1 [2]; 30 μM test compound): 243
- Survival (%) (A549; 1.1 μM test compound): 68.7%
- Survival (%) (A549; 10 μM test compound): 21.1%
- Survival (%) ([3]; 1.1 μM test compound): 84.4%
- Survival (%) ([3]; 10 μM test compound): 48.5%
- Survival (%) ([3]; 30 μM test compound): 25%
- Survival (%) ([3]; […] test compound): 71.2%
